The assay concerns complex IV (cytochrome c oxidase). Kind of assay: Complex IV activity of C2C12 myotubes. It is filed as cell-based. The settings on record: Mus musculus, C2C12, 72 h, 3 days, change vs control, trend p<0.07. How it is done:
Mouse myoblasts of the C2C12 cell line (ATCC) were seeded at a plating density of 7000 cells/cm2 in 6-well plates. They were grown in DMEM high glucose (4.5g/l) supplemented with gentamycin (50 µg/mL), amphotericin (50 µg/mL), and fetal calf serum (10%). Terminal differentiation was induced at cell confluence by lowering the medium serum concentration (0.5%).
When indicated, FuFA-F2 was added to the culture medium at the indicated concentration. For the differentiation studies, FuFA-F2 was added at the confluence at the same time as the change in media condition. Three doses of FuFA-F2 were studied at a final concentration of 1, 10, or 50 µM. Human insulin was used at a concentration of 100 nM.
Mitochondrial respiratory complex activities were determined as previously described (Casas et al., 2008, PloS ONE, Vol. 3(6) : e2501). Citrate synthase (CS) activity was measured according to Srere (Srere et al., 1967, Science, Vol. 158(3803) : 936-937) by following the color formation of 5-thio-2-nitrobenzoic acid at 412 nm. The enzymatic activity of complex IV (cytochrome c oxidase) was measured according to Wharton and Tzagoloff (Wharton et al., 1967, Methods in Enzymology, Vol. 10, Edn Elsevier BV, Amsterdam, The Netherlands), a spectrophotometer following the oxidation of reduced cytochrome c at 550 nm, pH 7.4, and 37 °C. Cytochrome c was reduced with sodium dithionite. […]

In the case of `CCCCCc1cc(C)c(CCCCCCCCC(=O)O)o1` [FuFA-F2], the activation at 10 µM came out at 60%.

For the origin of these results see EP4385508A1, “FURAN FATTY ACIDS FOR ENHANCING MUSCLE MASS” (Centre de Coopération Internationale en Recherche …, priority 2022, dated 2024).
